Measurements from ChEMBL document CHEMBL3045301, “Pharmacophore modeling of some novel indole -diketo acid and coumarin-based derivatives as HIV integrase inhibitors” (Med Chem Res, 2012).

What follows are compounds tested against Human immunodeficiency virus type 1 integrase (Human immunodeficiency virus 1, UniProt Q7ZJM1) (assay: Inhibition of Human immunodeficiency virus 1 integrase).
Human immunodeficiency virus type 1 integrase, sequence (Q7ZJM1 whole entry): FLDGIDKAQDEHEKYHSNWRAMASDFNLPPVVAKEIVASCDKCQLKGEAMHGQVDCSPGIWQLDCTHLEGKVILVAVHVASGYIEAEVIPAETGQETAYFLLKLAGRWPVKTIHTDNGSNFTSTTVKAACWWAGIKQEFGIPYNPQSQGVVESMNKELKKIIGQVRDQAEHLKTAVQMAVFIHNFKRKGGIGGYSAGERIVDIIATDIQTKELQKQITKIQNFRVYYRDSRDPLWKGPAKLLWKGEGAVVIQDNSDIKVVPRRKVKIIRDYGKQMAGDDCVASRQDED

IC50 [µM]	Compound
69.2	O=c1oc2ccccc2c(O)c1Cc1ccc(Cc2c(O)c3ccccc3oc2=O)cc1
12	O=c1oc2ccccc2c(O)c1C(c1ccc(OCc2ccccc2)c(OCc2ccccc2)c1)c1c(O)c2ccccc2oc1=O
20.4	O=c1oc2ccccc2c(O)c1-c1ccccc1-c1c(O)c2ccccc2oc1=O
11	O=c1oc2ccccc2c(O)c1-c1cccc(-c2c(O)c3ccccc3oc2=O)c1
3	CCn1cc(C(=O)/C=C(\O)C(=O)O)c2ccccc21
3	CCn1cc(C(=O)/C=C(\O)C(=O)O)c2cc3c(cc21)OCO3
6	Cn1c(C(=O)/C=C(\O)C(=O)O)cc2ccccc21
2	Cn1c(C(=O)/C=C(\O)C(=O)O)cc2cc3c(cc21)OCO3
1.6	CCn1c(C(=O)/C=C(\O)C(=O)O)cc2ccccc21
5	CCn1c(C(=O)/C=C(\O)C(=O)O)cc2cc3c(cc21)OCO3
1	O=C(O)/C(O)=C/C(=O)c1cc2ccccc2n1Cc1ccccc1
2	O=C(O)/C(O)=C/C(=O)c1cc2cc3c(cc2n1Cc1ccccc1)OCO3
2	Cn1cc(C(=O)/C=C(\O)C(=O)O)c2ccccc21
3	Cn1cc(C(=O)/C=C(\O)C(=O)O)c2cc3c(cc21)OCO3
44.9	O=c1oc2cc(O)ccc2c(O)c1Cc1c(O)c2ccc(O)cc2oc1=O
1.2	O=c1oc2ccccc2c(O)c1C(c1cccc(C(c2c(O)c3ccccc3oc2=O)c2c(O)c3ccccc3oc2=O)c1)c1c(O)c2ccccc2oc1=O

Compound	IC50 [µM]
O=C(O)/C(O)=C/C(=O)c1cn(Cc2ccccc2)c2ccccc12	1
O=c1oc2cc(O)ccc2c(O)c1C(c1cccnc1)c1c(O)c2ccc(O)cc2oc1=O	25
O=c1oc2cc(O)ccc2c(O)c1C(c1ccc2c(c1)CC=CC2)c1c(O)c2ccc(O)cc2oc1=O	3.5
O=c1oc2cc(O)ccc2c(O)c1C(c1ccc(CCc2ccccc2)cc1)c1c(O)c2ccc(O)cc2oc1=O	1.8
O=c1oc2ccccc2c(O)c1C(c1cnc2c(c1)CC=CC2)c1c(O)c2ccccc2oc1=O	23
O=c1oc2ccccc2c(O)c1C(c1ccc2c(c1)CC=CC2)c1c(O)c2ccccc2oc1=O	16
O=c1oc2ccccc2c(O)c1C(c1cccs1)c1c(O)c2ccccc2oc1=O	148
CN(C)c1ccc(C(c2c(O)c3ccccc3oc2=O)c2c(O)c3ccccc3oc2=O)cc1	49
O=c1oc2ccccc2c(O)c1C(c1ccc(-c2ccccc2)cc1)c1c(O)c2ccccc2oc1=O	13
O=c1oc2ccccc2c(O)c1C(c1ccccc1)c1c(O)c2ccccc2oc1=O	38
O=c1oc2cc(O)ccc2c(O)c1C(c1ccccc1)c1c(O)c2ccc(O)cc2oc1=O	22.2
O=c1oc2ccccc2c(O)c1C(c1ccco1)c1c(O)c2ccccc2oc1=O	132
O=c1oc2ccccc2c(O)c1C(c1ccc(O)cc1)c1c(O)c2ccccc2oc1=O	74.1
O=c1oc2cc(O)ccc2c(O)c1C(c1ccc(C(c2c(O)c3ccc(O)cc3oc2=O)c2c(O)c3ccc(O)cc3oc2=O)cc1)c1c(O)c2ccc(O)cc2oc1=O	3.03
